Laboratory results taken from publication PMC6934184, “Selective DNA-PKcs inhibition extends the therapeutic index of localized radiotherapy and chemotherapy” (The Journal of Clinical Investigation, 2019).

Biological target: T1, CAMKK1 (CAMKKA) (Homo sapiens, UniProt Q8N5S9)
T1 construct: purchased Thermo Fisher Scientific (Life Technologies) SelectScreen
Test: SelectScreen LanthaScreen
Type: binding
Conditions: read-out: % displacement
Outline: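 SelectScreen broad panel; activity (Z'LYTE, Adapta) plus binding formats. ATP: Km app for CSF1R Z'LYTE; 10 for CAMK1 Adapta. Readout = % per kinase.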

T1 sequence (Q8N5S9 whole entry): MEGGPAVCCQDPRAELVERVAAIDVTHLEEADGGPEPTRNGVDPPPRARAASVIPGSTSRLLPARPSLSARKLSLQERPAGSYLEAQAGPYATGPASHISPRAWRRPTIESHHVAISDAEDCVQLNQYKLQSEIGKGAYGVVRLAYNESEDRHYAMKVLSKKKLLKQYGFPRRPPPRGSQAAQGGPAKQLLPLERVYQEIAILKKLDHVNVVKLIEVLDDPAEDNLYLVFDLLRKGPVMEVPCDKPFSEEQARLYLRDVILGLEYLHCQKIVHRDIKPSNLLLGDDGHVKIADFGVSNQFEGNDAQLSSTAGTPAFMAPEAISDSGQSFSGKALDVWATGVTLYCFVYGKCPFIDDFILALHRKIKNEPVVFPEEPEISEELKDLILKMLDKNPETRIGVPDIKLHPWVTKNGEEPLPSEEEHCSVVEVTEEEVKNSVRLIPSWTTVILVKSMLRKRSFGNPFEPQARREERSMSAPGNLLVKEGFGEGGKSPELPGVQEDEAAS

Work on `CN(C(=O)CN1CCOCC1)c1ccc2sc3c(-c4cccc5c(=O)cc(N6CC7CCC(C6)O7)oc45)cccc3c2c1` [NU5455] yielded an inhibition at 1 µM of -3.8%.
